In publication PMC6508583 (Journal of the American Chemical Society, 2019):
In brackets after ≈: the same amount, converted by molar mass. Read-outs that look alike come from different tables or passages of the source.

What was measured:
[1] = system: Mit13 hybrid ribosome (decoding A site of the human mitochondrial ribosome); assay type: biochemical; settings: for IC50 Mit13: in vitro translation inhibition, Mit13 hybrid ribosome; for Selectivity Mit 13: Mit13 over wt bacterial ribosome
[2] = system: E. cloacae clinical isolates carrying two or more resistance determinants; assay type: cell-based; settings: Enterobacter cloacae
[3] = system: Cyt14 hybrid ribosome (decoding A site of the human cytoplasmic ribosome); assay type: biochemical; settings: for IC50 Cyt 14: in vitro translation inhibition, Cyt14 hybrid ribosome; for Selectivity Cyt14: Cyt14 over wt bacterial ribosome
[4] = system: A1555G mutant mitochondrial hybrid ribosome; assay type: biochemical, human; settings: for IC50 A1555G: in vitro translation inhibition, A1555G mutant mitochondrial hybrid ribosome; for Selectivity A1555G: A1555G over wt bacterial ribosome
[5] = system: E. coli carrying specific resistance determinants; experiment: Activity against wild-type and engineered E. coli carrying specific AMEs or RMTs; assay type: cell-based; settings: Escherichia coli
E. coli = experiment: Antibacterial activity against reference strains: E. coli; settings: for MIC: Escherichia coli; for Antibacterial activity (MIC) E. coli AG001: strain AG001; for Antibacterial activity (MIC) E. coli AG003: strain AG003 carries the AAC(3) gene
MRSA = experiment: Antibacterial activity against reference strains: MRSA; assay type: cell-based; settings: for MIC: Staphylococcus aureus, MRSA; for Antibacterial activity (MIC) MRSA AG038: strain AG038; for Antibacterial activity (MIC) MRSA AG042: strain AG042 carries the AAC(6)’, ANT(4’,4’’) and APH(3’) genes
[6] = system: wild-type bacterial ribosome; experiment: Cell-free translation assay, wild-type bacterial ribosome; assay type: biochemical; settings: in vitro translation inhibition
E. cloacae = experiment: Antibacterial activity against reference strains: E. cloacae; assay type: cell-based; settings: for MIC: Enterobacter cloacae, read-out: Antibacterial activity (MIC) E. cloacae AG290; for Antibacterial activity (MIC) E. cloacae AG290: strain AG290
[7] = system: E. coli clinical isolates carrying two or more resistance determinants; experiment: Activity against E. coli clinical isolates with multiple resistance determinants; assay type: cell-based; settings: Escherichia coli
K. pneumoniae = experiment: Antibacterial activity against reference strains: K. pneumoniae; assay type: cell-based; settings: strain AG215
A. baumannii = experiment: Antibacterial activity against reference strains: A. baumannii; assay type: cell-based; settings: strain AG225
P. aeruginosa = experiment: Antibacterial activity against reference strains: P. aeruginosa; settings: for Antibacterial activity (MIC) P. aeruginosa AG031: strain AG031 carries the APH(3’) gene
[8] = read-out: Activity (MIC) E. cloacae isolate 201333207
[9] = read-out: Activity (MIC) E. cloacae isolate 201385168
[10] = read-out: Activity (MIC) E. cloacae isolate 201430601
[11] = read-out: Activity (MIC) E. cloacae isolate 201435487
[12] = read-out: Activity (MIC) E. coli AG006
[13] = read-out: Activity (MIC) E. coli AG007
[14] = read-out: Activity (MIC) E. coli AG008
[15] = read-out: Activity (MIC) E. coli AG009
[16] = read-out: Activity (MIC) E. coli AG036
[17] = read-out: Activity (MIC) E. coli AG103
[18] = read-out: Activity (MIC) E. coli AG105
[19] = read-out: Activity (MIC) E. coli AG166
[20] = read-out: Antibacterial activity (MIC) E. coli AG001
[21] = read-out: Antibacterial activity (MIC) E. coli AG003
[22] = read-out: Antibacterial activity (MIC) MRSA AG038
[23] = read-out: Antibacterial activity (MIC) MRSA AG042
[24] = read-out: Activity (MIC) E. coli isolate 201430298
[25] = read-out: Activity (MIC) E. coli isolate 201441114
[26] = read-out: Activity (MIC) E. coli isolate 2014251408
[27] = read-out: Activity (MIC) E. coli isolate 2014405344

For CNC(C)C1CCC(N)C(OC2C(N)CC(N)C(OC3OCC(C)(O)C(NC)C3O)C2O)O1 (stereo not drawn) [Gentamicin], the “IC50 Mit13” value [1] was 9 µg/mL (≈ 18.8 µM), the MIC [2, 8] was 64 µg/mL (≈ 134 µM) and the MIC [2, 9] was over 256 µg/mL. For the same compound, the MIC [2, 10] was 16 µg/mL (≈ 33.5 µM), the MIC [2, 11] was 64 µg/mL (≈ 134 µM) and the “IC50 Cyt 14” value [3] was 33 µg/mL (≈ 69.1 µM). For the same compound, the “IC50 A1555G” value [4] was 0.5 µg/mL (≈ 1.05 µM), the MIC [5, 12] was 0.5 µg/mL (≈ 1.05 µM) and the MIC [5, 13] was 32 µg/mL (≈ 67 µM). It also gave an MIC [5, 14] of 8 to 16 µg/mL (≈ 16.8 to 33.5 µM), an MIC [5, 15] of 1 to 2 µg/mL (≈ 2.09 to 4.19 µM) and an MIC [5, 16] of 0.5 µg/mL (≈ 1.05 µM). It also gave an MIC [5, 17] of over 128 µg/mL, an MIC [5, 18] of 32 µg/mL (≈ 67 µM) and an MIC [5, 19] of 0.5 µg/mL (≈ 1.05 µM). The MIC (E. coli; [20]) was 1 to 2 µg/mL (≈ 2.09 to 4.19 µM), the MIC (E. coli; [21]) was 32 to 64 µg/mL (≈ 67 to 134 µM) and the MIC (MRSA; [22]) was 0.25 µg/mL (≈ 0.523 µM). For the same compound, the MIC (MRSA; [23]) was 64 µg/mL (≈ 134 µM), the IC50 wt [6] was 0.02 µg/mL (≈ 0.0419 µM) and the MIC (E. cloacae) was 0.25 µg/mL (≈ 0.523 µM). The MIC [7, 24] was 128 µg/mL (≈ 268 µM), the MIC [7, 25] was 16 µg/mL (≈ 33.5 µM) and the MIC [7, 26] was 256 µg/mL (≈ 536 µM). For the same compound, the MIC [7, 27] was over 256 µg/mL.
In the case of NCC[C@H](O)C(=O)N[C@@H]1C[C@H](N)[C@@H](O[C@H]2O[C@H](CN)[C@@H](O)[C@H](O)[C@H]2O)[C@H](O)[C@H]1O[C@H]1O[C@H](CO)[C@@H](O)[C@H](N)[C@H]1O [Amikacin], the “Selectivity Mit 13” value [1] is reported as 600, the “IC50 Mit13” value [1] is reported as 12 µg/mL (≈ 20.5 µM) and the MIC [2, 8] is reported as 16 µg/mL (≈ 27.3 µM). For the same compound, the MIC [2, 9] was over 256 µg/mL, the MIC [2, 10] was 8 µg/mL (≈ 13.7 µM) and the MIC [2, 11] was 4 µg/mL (≈ 6.83 µM). For the same compound, the “Selectivity Cyt14” value [3] was 4500, the “IC50 Cyt 14” value [3] was 90 µg/mL (≈ 154 µM) and the “Selectivity A1555G” value [4] was 21. For the same compound, the “IC50 A1555G” value [4] was 0.42 µg/mL (≈ 0.717 µM), the MIC [5, 12] was 1 to 2 µg/mL (≈ 1.71 to 3.42 µM) and the MIC [5, 13] was 2 µg/mL (≈ 3.42 µM). The MIC [5, 14] was 1 to 2 µg/mL (≈ 1.71 to 3.42 µM), the MIC [5, 15] was 32 µg/mL (≈ 54.6 µM) and the MIC [5, 16] was 4 to 8 µg/mL (≈ 6.83 to 13.7 µM). It also gave an MIC [5, 17] of over 128 µg/mL, an MIC [5, 18] of 2 µg/mL (≈ 3.42 µM) and an MIC [5, 19] of 2 µg/mL (≈ 3.42 µM). It also gave an MIC (E. coli; [20]) of 2 µg/mL (≈ 3.42 µM), an MIC (E. coli; [21]) of 2 µg/mL (≈ 3.42 µM) and an MIC (MRSA; [22]) of 4 µg/mL (≈ 6.83 µM). It also gave an MIC (MRSA; [23]) of 16 to 32 µg/mL (≈ 27.3 to 54.6 µM), an IC50 wt [6] of 0.02 µg/mL (≈ 0.0342 µM) and an MIC (E. cloacae) of 1 µg/mL (≈ 1.71 µM). The MIC [7, 24] was 8 µg/mL (≈ 13.7 µM), the MIC [7, 25] was 64 µg/mL (≈ 109 µM) and the MIC [7, 26] was 64 µg/mL (≈ 109 µM). The MIC [7, 27] was over 256 µg/mL.
In the case of CCC1C(CO)OC(OC2C(N)CC(N)C(O)C2OC2OC(CO)C(OC3OC(CN)C(O)C(O)C3N)C2O)C(N)C1O (stereo not drawn) [Compound 35], the “Selectivity Mit 13” value [1] is reported as 3033, the “IC50 Mit13” value [1] is reported as 182 µg/mL (≈ 290 µM) and the “Selectivity Cyt14” value [3] is reported as 1867. For the same compound, the “IC50 Cyt 14” value [3] was 112 µg/mL (≈ 178 µM), the “Selectivity A1555G” value [4] was 2150 and the “IC50 A1555G” value [4] was 129 µg/mL (≈ 206 µM). The “Antibacterial activity (MIC) K. pneumoniae AG215” value (K. pneumoniae) was 4 µg/mL, the “Antibacterial activity (MIC) E. coli AG001” value (E. coli) was 8 µg/mL and the “Antibacterial activity (MIC) E. coli AG003” value (E. coli) was 8 µg/mL. The “Antibacterial activity (MIC) A. baumannii AG225” value (A. baumannii) was 16 to 32 µg/mL, the “Antibacterial activity (MIC) MRSA AG038” value (MRSA) was 8 µg/mL and the “Antibacterial activity (MIC) MRSA AG042” value (MRSA) was 4 to 8 µg/mL. The IC50 wt [6] was 0.06 µg/mL (≈ 0.0956 µM), the “Antibacterial activity (MIC) P. aeruginosa AG031” value (P. aeruginosa) was 64 to 128 µg/mL and the “Antibacterial activity (MIC) E. cloacae AG290” value (E. cloacae) was 4 to 8 µg/mL.
With NCC1OC(OC2C(CO)OC(OC3C(O)C(N)CC(N)C3OC3OC(CO)C(CC(O)CO)C(O)C3N)C2O)C(N)C(O)C1O (stereo not drawn) [Compound 37] the “Selectivity Mit 13” value [1] was 320, the “IC50 Mit13” value [1] was 32 µg/mL (≈ 47.5 µM) and the “Selectivity Cyt14” value [3] was 590. The “IC50 Cyt 14” value [3] was 59 µg/mL (≈ 87.6 µM), the “Selectivity A1555G” value [4] was 330 and the “IC50 A1555G” value [4] was 33 µg/mL (≈ 49 µM). The “Antibacterial activity (MIC) K. pneumoniae AG215” value (K. pneumoniae) was 8 µg/mL, the “Antibacterial activity (MIC) E. coli AG001” value (E. coli) was 16 µg/mL and the “Antibacterial activity (MIC) E. coli AG003” value (E. coli) was 8 µg/mL. For the same compound, the “Antibacterial activity (MIC) A. baumannii AG225” value (A. baumannii) was 8 µg/mL, the “Antibacterial activity (MIC) MRSA AG038” value (MRSA) was 4 µg/mL and the “Antibacterial activity (MIC) MRSA AG042” value (MRSA) was 8 µg/mL. For the same compound, the IC50 wt [6] was 0.10 µg/mL (≈ 0.148 µM), the “Antibacterial activity (MIC) P. aeruginosa AG031” value (P. aeruginosa) was 16 to 32 µg/mL and the “Antibacterial activity (MIC) P. aeruginosa AG220” value (P. aeruginosa; strain AG220 carries the APH(3’) gene) was 16 µg/mL. The “Antibacterial activity (MIC) E. cloacae AG290” value (E. cloacae) was 4 to 8 µg/mL.
